Laboratory results as given in US4555522A, “Antithrombotic and/or antihypertensive compositions” (T & R Chemicals, Inc., priority 1983, dated 1985).
Read-outs that look alike come from different tables or passages of the source.

Columns and labels:
[1] = tested on: platelet aggregation in platelet-rich plasma (PRP); assay: In vitro inhibition of platelet aggregation, method of Born; format: cell-based; conditions: Oryctolagus cuniculus, read-out: IC50 of diethyl sulphite
Procedure: (§1) In order to evaluate the effectiveness of diethyl sulphite as an anti-platelet aggregatory agent the following experiments are carried out.
(A) In vitro Platelet-rich plasma (PRP) is prepared from a rabbit and the IC50 value is determined according to the method of Born, "Nature", 194, 927-929 (1962). The IC50 is the estimated concentration of the agent necessary to inhibit 50 percent of the platelet aggregation. The data tabulated below is obtained.

platelet aggregation = assay: Ex vivo inhibition of platelet aggregation after injection into a rabbit; conditions: 219 mg injected, 3.06 kg rabbit, about 10 millimolar in blood, 10 minutes
Procedure: as §1
(B) Ex vivo A rabbit weighing 3.06 kg is injected with 219 mg of diethyl sulphite to give a concentration of about 10 millimolar diethyl sulphite in the blood. After 10 minutes, a blood sample is withdrawn and the percent inhibition of platelet aggregation, as compared to a blood sample taken before injection, is determined.

hypertensive disorders = assay: Treatment of hypertensive disorders in rats; format: in vivo, rat; conditions: aqueous suspension, e.g. 0.5 to 2.5 millimolar
Procedure: (§2) Dimethyl sulphite and diethyl sulphite are successively prepared by esterifying 2 moles of each respective alkanol with 1 mole of thionyl chloride. The diethyl ester is a colourless liquid (b.p. 159°) with an aromatic odour, believed to have the following formula: [drawing 17] A composition based on this compound, e.g. an aqueous suspension having a concentration in the range from 0.5 to 2.5 millimolar, is effective in the treatment of thrombotic and hypertensive disorders in rats. It is theorized to be activated in vivo by virtue of its conversion to sulphite ions.

thrombotic disorders = assay: Treatment of thrombotic disorders in rats; format: in vivo, rat; conditions: aqueous suspension, e.g. 0.5 to 2.5 millimolar
Procedure: as §2

## CCOS(=O)OCC [diethyl sulphite]
[1]; stimulus: U-46619, rabbit PRP
  IC50: 11 mM
[1]; stimulus: adenosine diphosphate (ADP), rabbit PRP
  IC50: 35 mM
[1]; stimulus: arachidonic acid, rabbit PRP
  IC50: 6.25 mM
Platelet aggregation; stimulus: ADP
  percent inhibition of platelet aggregation: 29%
Platelet aggregation; stimulus: U-46619
  percent inhibition of platelet aggregation: 12%
Platelet aggregation; stimulus: arachidonic acid
  percent inhibition of platelet aggregation: 0%
Hypertensive disorders
  effectiveness in the treatment of hypertensive disorders: effective
Thrombotic disorders
  effectiveness in the treatment of thrombotic disorders: effective
